Measurements as given in PMC7504039, “Tetrapeptide Ac-HAEE-NH2 Protects α4β2 nAChR from Inhibition by Aβ” (International Journal of Molecular Sciences, 2020).
“Also recorded” adds a separate entry of the source. Where two headings read alike, the source gives them in different places. Where a SMILES comes first, the peptide text is derived from it.

B1: Ac-RADD-NH2 (peptide)
peptide: Ac-RADD-NH2
B2: Ac-HAEE-NH2 tetrapeptide (peptide)
peptide: Ac-HAEE-NH2

Columns and labels:
[1] = biological target: T1, immobilized Aβ16 (Homo sapiens, UniProt P05067); assay: Direct binding assay: surface plasmon resonance, tetrapeptides over immobilized Aβ16-G4-C; conditions: for koff: read-out: koff × 10^-3 s^-1; for Ka × 10^-2 M^-1: 10 mM HEPES pH 6.8, Ka = kon/koff, mean±SD of three independent measurements
T1 construct: purchased Biopeptide (San Diego, CA, USA); host or cells: chemical synthesis
Method: Surface plasmon resonance (SPR) was utilized to detect the direct binding of the tetrapeptides to immobilized Aβ16-G4-C. All SPR experiments were carried out on a BIAcore T100 instrument (GE Healthcare, IL, USA). Research grade sensor chips CM5 carrying the hydrophilic carboxymethylated dextran matrix, HEPES Buffered Saline (HBS) buffer (10 mM HEPES (4-(2-hydroxyethyl)-1-piperazineethanesulfonic acid)), pH 7.4, 150 mM NaCl, 3 mM EDTA, 0.005% surfactant P20), 1-ethyl-3-(3-dimethylaminopropyl)-carbodiimide (EDC), N-hydroxysuccinimide (NHS), 2-(2-pyridinyldithio)-ethaneamine (PDEA), and cysteine were purchased from Biacore (GE, Boston, MA, USA). All other chemicals and solvents were of HPLC-grade or better and were obtained from MilliporeSigma (St. Louis, MO, USA). All buffers were filtered (0.45 μm, nylon) prior to use.
Attachment of the synthetic peptide Aβ16-G4-C to the CM5 chip was performed according to the thiol bond formation protocol described in the Sensor surface handbook (GE Healthcare, Chicago, IL, USA). The carboxymethyl dextran matrix was activated by injection of a 1:1 mixture of EDC and NHS (30 μL, 400 mM EDC, 100 mM NHS) with the following injection of an 80 mM PDEA solution in 0.1 M sodium borate (pH 8.5). The Aβ16-G4-C solution was then injected into the activated flow cell (0.05 mg/mL peptide in 10 mM sodium acetate buffer, pH 4.5). Unreacted disulfide groups on the CM5 chip surface were capped with a 50 mM cysteine solution in 0.1 M sodium acetate buffer (pH 4.0). The change corresponding to the immobilization of Aβ16-G4-C was 1023 response units (RU). The flow rate used for all immobilization steps was 5 μL/min. An unmodified dextran surface was used as a reference surface.
Then, the binding affinities of the immobilized Aβ16-G4-C to the following peptide-analytes were measured. Samples of Ac-HAEE-NH2 and other tetrapeptides were prepared by dilution of respective stock solutions in the running buffer (10 mM HEPES, pH 6.8). Each analyte was diluted to different concentrations (0 μM, 50 μM, 100 μM, 200 μM, 500 μM, 1000 μM, 1500 μM, 2000 μM) and injected in multichannel mode (volume 50 μL and rate 10 μL/min) during 300 s. Then, the chip surface was exposed to the running buffer without analyte for 120 s. After each injection of the analyte, the surface was regenerated with 5 μL of the regeneration buffer (HBS buffer containing 10 mM HEPES, 3 mM EDTA, 0.005% surfactant P20 and 150 mM NaCl, pH 7.4). The signal from the reference surface was subtracted from the raw data, obtained from the flow cell with the immobilized ligand.
The kinetic rate constants were calculated from the sensorgrams by globally fitting the response curves obtained at various analyte concentrations using the Langmuir model (1:1 binding) in the BIAevaluation 4.1 program. The association (kon) and the dissociation (koff) rate constants were fitted simultaneously (1), dR/dt = kon C (Rmax − R) − koff R(1) where R stands for the biosensor response of the formed complex, C is the concentration of the analyte, and Rmax is the maximal theoretical value of the binding response for a given analyte.
Using the obtained data dissociation (Kd) constant was calculated from the ratios of the association (kon) and dissociation (koff) rate constants: Kd = koff/kon, Ka = kon/koff.

[2] = tested on: Aβ; conditions: previously shown; reference not given; cited from earlier work
[3] = tested on: amyloid load in the brains; parameters: method as in PMID 26402624; conditions: injections; cited from earlier work
[4] = tested on: rat α4β2 nAChR; assay: Two-electrode voltage clamp in Xenopus laevis oocytes expressing α4β2 nAChR; assay type: cell-based; conditions: for effect of washout with the peptide on current amplitude after Aβ42: 3 min, after 10 µM Aβ42
Method: Two-electrode voltage clamp electrophysiology on the α4β2 nAChR expressed in Xenopus laevis oocytes was performed according to previously published protocols [7]. Stage V ± VI Xenopus laevis oocytes were defolliculated with 1 mg/mL collagenase Type I (Life Technologies, Carlsbad, CA, USA) at room temperature (21–24 °C) for 2 h in Barth’s solution without calcium (88.0 mM NaCl, 1.1 mM KCl, 2.4 mM NaHCO3, 0.8 mM MgSO4, 15.0 mM HEPES/NaOH, pH 7.6). The oocytes were stored in Barth’s solution with calcium for 72–120 h (88.0 mM NaCl, 1.1 mM KCl, 2.4 mM NaHCO3, 0.3 mM Ca(NO3)2, 0.4 mM CaCl2, 0.8 mM MgSO4, 15.0 mM HEPES/NaOH, pH 7.6) supplemented with 63.0 μg/mL penicillin-G sodium salt, 40.0 μg/mL streptomycin sulfate.
Oocytes were injected with 3 ng plasmids coding the rat α4 and β2 nAChR subunits (pcDNA3.1 vector) in a molar ratio of 1:1 using an Auto-Nanoliter Injector NanoJect-2 (Drummond Scientific Company, Broomall, PA, USA) in a total injection volume of 23 nL. After injection, oocytes were incubated at 18 °C in Barth’s solution with calcium for 48–120 h. Electrophysiological recordings were made using a Turbo TEC-03X amplifier (npi electronic GmbH, Tamm, Germany) and WinWCP recording software (University of Strathclyde, Glasgow, UK). Oocytes were placed in a small recording chamber with a working volume of 50 μL and 100 μL of agonist (acetylcholine) solution in Barth’s buffer were applied to an oocyte. […] To allow receptor recovery from desensitization, the oocytes were superfused for 5–10 min with buffer (1 mL/min) between ligand applications. Electrophysiological recordings were performed at a holding potential of −60 mV.
Data are presented as means of at least three independent experiments ± SD. The comparison of data groups in electrophysiology studies was performed with ordinary one-way ANOVA. Post-hoc analysis was performed with the Tukey test. Shapiro-Wilk test was used to confirm the normality of the dataset. Statistical analysis was performed using GraphPad Prism 8.4.1 software (GraphPad Software Inc., CA, USA).

[5] = biological target: Aβ16-G4-C, [Ac]-…-[NH2]; assay: SPR; Aβ16-G4-C immobilised by thiol coupling on a CM5 chip (1023 RU), BIAcore T100; tetrapeptides injected at 0-2000 μM, 10 μL/min, 300 s; running buffer 10 mM HEPES, pH 6.8; global fit, Langmuir 1:1 model; Kd = koff/kon
[6] = Table S2, SPR, immobilized Aβ16, 25 °C, 10 mM HEPES pH 6.8, mean±SD of three independent measurements
[7] = Table S2, SPR, immobilized Aβ16, 25 °C, 10 mM HEPES pH 6.8, mean±SD of three independent measurements, read-out: kon × M^-1 s^-1
[8] = Table S2, SPR, immobilized Aβ16, 25 °C
[9] = Table S2, SPR, immobilized Aβ16, 25 °C, 10 mM HEPES pH 6.8, mean±SD of three independent measurements, read-out: Kd × 10^4 M
[10] = SPR, BIAcore T100, Aβ16-G4-C on CM5 chip, running buffer 10 mM HEPES pH 6.8, 1:1 Langmuir global fit, Kd = koff/kon, read-out: dissociation constant Kd
[11] = SPR, immobilized Aβ16, 10 mM HEPES pH 6.8

T1 sequence (P05067 with tags, fused parts or gaps limits assumed): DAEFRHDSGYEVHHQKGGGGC

| Molecule | koff [1, 6] | kon [1, 7] | Ka × 10^-2 M^-1 [1, 8] | Kd [1, 9] | other results |
| --- | --- | --- | --- | --- | --- |
| CC(=O)N[C@@H](CC(=O)O)C(=O)N[C@@H](CC(=O)O)C(=O)N[C@@H](C)C(=O)N[C@@H](Cc1c[nH]cn1)C(N)=O [#2, Ac-DDAH-NH2] (Ac-DDAH-NH2) | 0.0154 ± 0.0001 s⁻¹ | 0.52 ± 0.01 M⁻¹ s⁻¹ | – | – | Kd ([1]; read-out: Ka × 10^-2 M^-1 (converted)): 2970 µM |
| CC(=O)N[C@@H](CC(=O)O)C(=O)N[C@@H](CC(=O)O)C(=O)N[C@@H](C)C(=O)N[C@@H](CCCCN)C(N)=O [#4, Ac-DDAK-NH2] (Ac-DDAK-NH2) | 0.0062 ± 0.0001 s⁻¹ | 4.57 ± 0.09 M⁻¹ s⁻¹ | 7.3±0.3 × 10^-2 M^-1 | 1370 ± 50 µM | – |
| CC(=O)N[C@@H](CCCCN)C(=O)N[C@@H](C)C(=O)N[C@@H](CCC(=O)O)C(=O)N[C@@H](CC(=O)O)C(N)=O [#9, Ac-KAED-NH2] (Ac-KAED-NH2) | 0.019 ± 0.001 s⁻¹ | 5.7 ± 0.9 M⁻¹ s⁻¹ | 3.1±0.6 × 10^-2 M^-1 | 3300 ± 700 µM | – |
| CC(=O)N[C@@H](CCCNC(=N)N)C(=O)N[C@@H](C)C(=O)N[C@@H](CC(=O)O)C(=O)N[C@@H](CC(=O)O)C(N)=O [Ac-RADD-NH2] (Ac-RADD-NH2) | 0.00024 ± 4e-05 s⁻¹ | 18.5 ± 0.1 M⁻¹ s⁻¹ | 800±100 × 10^-2 M^-1 | – | Kd [1, 10]: 13 µM |
| CC(=O)N[C@@H](CCC(=O)O)C(=O)N[C@@H](CC(=O)O)C(=O)N[C@@H](C)C(=O)N[C@@H](CCCCN)C(N)=O [#16, Ac-EDAK-NH2] (Ac-EDAK-NH2) | 0.0097 ± 0.0002 s⁻¹ | 0.136 ± 0.006 M⁻¹ s⁻¹ | 0.141±0.009 × 10^-2 M^-1 | – | – |
| CC(=O)N[C@@H](CCC(=O)O)C(=O)N[C@@H](CC(=O)O)C(=O)N[C@@H](C)C(=O)N[C@@H](CCCNC(=N)N)C(N)=O [#18, Ac-EDAR-NH2] (Ac-EDAR-NH2) | 0.0047 ± 0.0001 s⁻¹ | 0.13 ± 0.01 M⁻¹ s⁻¹ | 0.28±0.03 × 10^-2 M^-1 | – | – |
| CC(=O)N[C@@H](Cc1c[nH]cn1)C(=O)N[C@@H](C)C(=O)N[C@@H](CC(=O)O)C(=O)N[C@@H](CC(=O)O)C(N)=O [#1, Ac-HADD-NH2] (Ac-HADD-NH2) | 0.0104 ± 2e-05 s⁻¹ | 3.2 ± 0.08 M⁻¹ s⁻¹ | 3.08±0.08 × 10^-2 M^-1 | 3250 ± 90 µM | – |
| CC(=O)N[C@@H](Cc1c[nH]cn1)C(=O)N[C@@H](C)C(=O)N[C@@H](CCC(=O)O)C(=O)N[C@@H](CCC(=O)O)C(N)=O [Ac-HAEE-NH2] (Ac-HAEE-NH2) | 3.5e-05 ± 8e-06 s⁻¹ | – | 110±40 × 10^-2 M^-1 | – | zinc-dependent oligomerization of Aβ [2]: prevent zinc-dependent oligomerization of Aβ; Kd [1, 10]: 90 µM; kon ([1]; SPR, immobilized Aβ16, 10 mM HEPES pH 6.8, read-out: kon): 0.37 M⁻¹ s⁻¹; amyloid load in the brains of AD model mice [3]: effectively reduce the amyloid load; effect of washout with the peptide on current amplitude after Aβ42 ([4]; 25 µM in washout buffer, 100 µM ACh): did not affect the current amplitude; effect of washout with the peptide on current amplitude after Aβ42 ([4]; 50 µM in washout buffer, 100 µM ACh): less so at 50 µM; effect on Aβ42-induced inhibition when co-applied with Aβ42 ([4]; 100 µM Ac-HAEE-NH2 (10-times molar excess) with 10 µM Aβ42, 3 min pre-incubation, 100 µM ACh): the degree of inhibition was reduced significantly; also recorded: reduced the inhibitory effect of Aβ42 by half; leakage current after washout with peptide-containing buffer ([4]; 100 µM Ac-HAEE-NH2 washout after 10 µM Aβ42 and buffer washout): reduced the leakage current almost to the control values; effect of washout with the peptide on current amplitude after Aβ42 ([4]; 100 µM in washout buffer, 100 µM ACh): fully revoked the inhibition induced by Aβ42; also recorded: most effective at 100 µM; amplitude of ACh-evoked currents after washout with the peptide (over the range tested) ([4]; 25–100 µM in washout buffer after 10 µM Aβ42, 100 µM ACh): dose-dependently returned to the control levels; also recorded: completely restored the receptor response; effect on ACh-evoked current in the absence of Aβ42 ([4]; α4β2 nAChR-expressing oocytes): did not affect ACh-evoked current; currents induced by the peptide itself ([4]; α4β2 nAChR-expressing oocytes, no ACh): did not induce any currents |
| CC(=O)N[C@@H](CC(=O)O)C(=O)N[C@@H](CCC(=O)O)C(=O)N[C@@H](C)C(=O)N[C@@H](CCCNC(=N)N)C(N)=O [#12, Ac-DEAR-NH2] (Ac-DEAR-NH2) | 0.00709 ± 9e-05 s⁻¹ | 3.58 ± 0.08 M⁻¹ s⁻¹ | 5.1±0.2 × 10^-2 M^-1 | 1980 ± 70 µM | – |
| CC(=O)N[C@@H](CCCCN)C(=O)N[C@@H](C)C(=O)N[C@@H](CC(=O)O)C(=O)N[C@@H](CCC(=O)O)C(N)=O [#15, Ac-KADE-NH2] (Ac-KADE-NH2) | 0.0096 ± 0.0002 s⁻¹ | 2.2 ± 0.1 M⁻¹ s⁻¹ | 2.2±0.1 × 10^-2 M^-1 | 4500 ± 300 µM | – |
| CC(=O)N[C@@H](CCCNC(=N)N)C(=O)N[C@@H](C)C(=O)N[C@@H](CCC(=O)O)C(=O)N[C@@H](CCC(=O)O)C(N)=O [Ac-RAEE-NH2] (Ac-RAEE-NH2) | 0.0112 ± 8e-05 s⁻¹ | 1.5 ± 0.1 M⁻¹ s⁻¹ | 1.3±0.1 × 10^-2 M^-1 | 7700 ± 600 µM | binding to Aβ16 in the SPR assay (in words) [1, 11]: two orders of magnitude weaker binding than Ac-HAEE-NH2 |
| Ac-KAEE-NH2 | – | – | – | – | binding to Aβ16 in the SPR assay (in words) [1, 11]: no binding was detected at all |
| B1 | – | – | – | – | Kd [5]: 13 µM |
| B2 | – | – | – | – | Kd [5]: 90 µM; koff [5]: 4e-05 s⁻¹; kon [5]: 0.37 M⁻¹ s⁻¹ |
